# In patent US9890192B2, “Targeted nitroxide agents” (University of Pittsburgh—of the Commonwealth System of …, priority 2008, dated 2018):
# Entries after “also recorded” stand apart in the source; their conditions may differ. Where a SMILES comes first, the peptide text is derived from it. [ ]: non-standard residue; d: D form. The star is where a group is joined. ξ: configuration not given here. NH(TEMPO-4-yl) = CC1(C)CC(N*)CC(C)(C)N1[O]; Orn = NCCC[C@H](N)C(=O)O; Cbz = O=C(OCc1ccccc1)*; Boc = CC(C)(C)OC(=O)*; ξOrn = NCCCC(N)C(=O)O; X1 = CC1CCN=C(N*)S1
# What was measured:
# MECs [1] = assay: Intracellular superoxide generation (DHE flow cytometry) in ActD-treated MECs; type: cell-based, mouse; details: 10 μM pretreatment; ActD 100 ng/mL
# Procedure: Determination of intracellular superoxide radicals. Oxidation-dependent fluorogenic dye, dihydroethidium (“DHE”, Molecular Probes) was used to evaluate intracellular production of superoxide radicals. DHE is cell permeable and, in the presence of superoxide, is oxidized to fluorescent ethidium which intercalates into DNA. The fluorescence of ethidium was measured using a FACscan (Becton-Dickinson, Rutherford, N.J.) flow cytometer, equipped with a 488-nm argon ion laser and supplied with the Cell Quest software. Mean fluorescence intensity from 10,000 cells were acquired using a 585-nm bandpass filter (FL-2 channel).
# MECs [2] = assay: ActD-induced apoptosis in MECs (annexin V, caspase-3, DNA fragmentation); details: for DNA fragmentation / caspase-3 activation / number of annexin V-positive cells (PS externalization): 10 μM, ActD 100 ng/mL
# Procedure: The ability of 5a, 5b, and 4-AT to protect cells against apoptosis triggered by actinomycin D (“ActD”) was also tested. MECs were pretreated with 10 μM 4-AT, 5a, or 5b then incubated with ActD at a concentration of 100 ng/mL.
# Externalization of PS was analyzed by flow cytometry using an annexin V kit. Cells were harvested by trypsinization at the end of incubation and then stained with annexin V-FITC and propidium iodide (“PS”). Ten thousand cell events were collected on a FACScan flow cytometer. Annexin V-positive and PI-negative cells were considered apoptotic.
# Activation of capase-3, a cysteine protease only activated in the execution phase of apoptosis, was determined using an EnzChek capsase-3 assay kit.
# These DNA fragments are eluted, stained with propidium iodide and analyzed using flow cytometry. A cell population with decreased DNA content was considered a fraction of apoptotic cells.
# [3] = test system: mitochondria of 32D c 13 hemopoietic cells; assay: Mass spectrometry of compounds in mitochondria isolated from 32D cl 3 cells; type: cell-based, murine; details: 100 μM; two hours at 37° C.
# Procedure: An unconjugated and conjugated NOS antagonist, (AMT, 100 μM) and an unconjugated and conjugated nitroxide derivative (4-amino-TEMPO, 100 μM) were incubated for two hours at 37° C. with 32D c 13 hemopoietic cells.
# Following incubation, the cells were lysed and the mitochondria isolated for a mass spectrometry analysis where compounds isolated from mitochondria were identified as Na+ adducts. […] Thus, the targeting peptides successfully direct a NOS antagonist and a nitroxide to the mitochondria.
# [4] = test system: irradiated uroepithelial cells; assay: NO and peroxynitrite production in irradiated uroepithelial cells; type: cell-based; details: 4-amino-TEMPO 100 μM, AMT 10 μM; capsaicin evoked; 24 hours after irradiation
# Procedure: Further physiological studies were conducted to determine the effects of peptide-targeted AMT and 4-amino-TEMPO on NO and peroxynitrite production in irradiated uroepithelial cells. The cells were cultured in an 8-well slide chamber for 3 days and then microsensor measurements were taken 24 hours after irradiation.
# In cells treated with high-dose conjugated 4-amin-TEMPO (100 μM), peroxynitrite production was decreased by approximately 4-fold.
# mitochondrial membrane = assay: Quantitative mass spectrometry of AMT peptide conjugates permeating the mitochondrial membrane; type: cell-based; details: relative quantification of conjugate at the target site
# Procedure: Quantitative mass spectrometry studies were used to compare the effectiveness of several AMT peptide conjugates in permeating the mitochondrial membrane, specifically XJB-5-234, XJB-5-133, XJB-5-241, and XJB-5-127. The fmole/10 μM mitochondrial protein ratio provides a relative quantification of conjugate concentration at the target site.
# [5] = test system: γ-H2AX in primary MEF cells from Ercc1−/− mice; assay: γ-H2AX immunostaining in Ercc1−/− MEFs under oxidative stress; type: cell-based, mouse; details: 1 μM, 48 hours
# Procedure: Next, the abilities of these two agents, as well as XJB-5-131 and JP4-039, each at a concentration of 1 μM, were tested for their ability to prevent oxidation-induced DNA double-strand breaks in cell cultures prepared, and oxidatively stressed, as in the preceding paragraph. Treated as well as untreated cells were, after 48 hours of treatment, immunostained for γ-H2AX, a marker of DNA double-strand breaks as well as cellular senescence.
# [6] = test system: p16 in primary MEFs from Ercc1−/− mouse embryos; assay: p16 immunofluorescence in Ercc1−/− MEFs under 20% oxygen; type: cell-based; details: 1 uM, 48 hrs
# Procedure: To test the protective activity of JP4-039, cultures of primary MEFs were prepared from Ercc1^−/− mouse embryos and grown under 20% oxygen (ambient air), which creates oxidative stress in these cells that are hypersensitive to reactive oxygen species. The cells were then either treated with a concentration of 1 uM XJB-5-131, JP4-039, JED-E71-37 or JED-E71-58, or left untreated (media), and then after 48 hrs the level of p16, a marker of irreversible cellular senescence, was measured by immunofluorescence staining.
# [7] = test system: MEF cells prepared from wild-type mouse embryos; assay: Toxicity of JP4-039 in wild-type MEF cultures; type: cell-based; details: up to 10 μM, 48 hours
# Procedure: (§1) To assess the therapeutic potential of JP4-039, tests for safety and protective activity were performed. FIGS. 35 and 36 show the results of tests to evaluate whether varying concentrations of JP4-039 produce toxic effects after 48 hours in cultures of MEF cells prepared from Ercc1^−/− or wild-type mouse embryos, respectively.
# [8] = test system: 32D cl 3 mouse hematopoietic progenitor cell line; assay: Irradiation survival curves of 32D cl 3 cells with JP4-039; type: cell-based; details: 10 μM
# Procedure: Irradiation survival curves were performed on cells from the 32D cl 3 mouse hematopoietic progenitor cell line, incubated in 10 μM JP4-039 for 1 hour before irradiation, or plated in methylcellulose containing 10 μM […] after irradiation. Cells were irradiated from 0 to 8 Gy, plated in 0.8% methylcellulose containing media, and incubated for 7 days at 37° C. Colonies of greater than 50 cells were counted and data analyzed by linear quadratic and single-hit, multi-target models.
# [9] = test system: MEF cells prepared from Ercc1−/− mouse embryos; assay: Toxicity of JP4-039 in Ercc1−/− MEF cultures; type: cell-based; details: 48 hours
# Procedure: as §1
# [10] = test system: KM101 human marrow stromal cells; assay: Irradiation survival of KM101 cells with JP4-039; type: cell-based; details: 10 μM
# Procedure: KM101 cells were incubated in media alone or in JP4-039 (10 μM) for one hour before irradiation or 24 hours after irradiation. The cells were irradiated to doses ranging from 0 to 6 Gy and plated in 4 well plates. Seven days later the cells were stained with crystal violet and colonies of greater than 50 cells counted. Cells incubated in JP4-039 either before or after irradiation were more radioresistant as shown by an increased shoulder of n=2.3±0.2 or 2.2±0.2, respectively compared to n of 1.1±0.1 for the KM101 cells (p=0.0309 or 0.0386, respectively).
# [11] = test system: mice exposed to total body irradiation; assay: Survival of mice after total body irradiation; type: in vivo, mouse
# Procedure: In FIG. 17A, mice received intraperitoneal injection of 10 mg per kilogram of each of the chemicals indicated in FIG. 5, then 24 hours later received 9.75 Gy total body irradiation according to published methods. Mice were followed for survival according to IACUC regulations. […] (P=0.0008). In FIG. 17B, mice received intraperitoneal injection of JP4-039 either 10 minutes before (square symbols) or 4 hours after (triangle symbols) irradiation with 9.75 Gy.
# Groups of 15 mice received intraperitoneal injection of 10 mg. per kilogram of each indicated GS-nitroxide compound or carrier (Cremphora plus alcohol at 1 to 1 ratio, then diluted 1 to 10 in distilled water). Mice received 10 mg per kilogram intra-peritoneal injection 24 hours prior to total body irradiation. Control mice received radiation alone. […] (P=0.0005)
# [12] = test system: mouse embryonic cells (MEC); assay: EPR-based analysis of integration and reduction of nitroxide Gramicidin S-peptidyl conjugates in MECs; type: cell-based; details: 10 μM, whole cells, cytosol fractions
# Procedure: Electron paramagnetic resonance (“EPR”) spectroscopy was used to monitor the cellular delivery of compounds 5a and 5b shown in FIG. 3 in mouse embryonic cells (“MEC”).
# The following conditions were used during the EPR-based analysis of the integration and reduction of nitroxide Gramicidin S-peptidyl conjugates in MECs. The MECs at a concentration of 10 million MECs per mL were incubated with 10 μM of 4-AT and compound 5a, respectively. Recovered nitroxide radicals in whole cells, mitochondria, and cytosol fractions were resuspended in phosphate buffer saline (“PBS”) in the presence and absence, respectively, of 2 μM K3Fe(CN)6.
structure (smiles),measurement,setting,value
CC(C)C[C@H](NC(=O)OC(C)(C)C)C(=O)N[C@H](Cc1ccccc1)C(=O)N1CCC[C@H]1C(=O)N[C@H](C(=O)N[C@@H](CCCNC(=O)OCc1ccccc1)C(=O)NC1CC(C)(C)N([O])C(C)(C)C1)C(C)C [5b] (Boc-L[dF]PV[Orn](Cbz)-{NH(TEMPO-4-yl)}),intracellular superoxide generation,MECs [1],completely inhibited
same,DNA fragmentation,MECs [2],prevented DNA fragmentation
same,caspase-3 activation,MECs [2],prevented caspase-3 activation
same,number of annexin V-positive cells (PS externalization),MECs [2],reduced the number of annexin V•positive cells
same,protection or cytotoxicity at higher concentration,MECs [2]; concentrations in excess of 10 μM,either less protective or exhibited cytotoxicity
"CC1CCN=C(N)S1 (stereo not drawn) [AMT, 2-amino-6-methyl-thiazine]","permeation of the mitochondrial membrane (MS, Na+ adducts)",[3],do not enter the mitochondria membrane in substantial quantities
same,peroxynitrite formation,[4],comparable amount of peroxynitrite
"CC(C)C[C@H](NC(=O)OC(C)(C)C)C(=O)N[C@H](Cc1ccccc1)C(=O)N1CCC[C@H]1C(=O)N[C@H](C(=O)NC(CCCNC(=O)OCc1ccccc1)C(=O)NC1=NCCC(C)S1)C(C)C (stereo partly drawn) [XJB-5-127, Boc-Leu-^DPhe-Pro-Val-Orn(Cbz)-AMT] (Boc-L[dF]PV[ξOrn](Cbz)-X1)",fmole/10 μM mitochondrial protein,mitochondrial membrane,50.8 fmole/10 μM mitochondrial protein
"CC(C)C[C@@H](/C=C/CC(=O)NC1CC(C)(C)N([O])C(C)(C)C1)NC(=O)OC(C)(C)C [JP4-039, TEMPO-4-yl-(S,E)-5-(tert-butoxycarbonylamino)-7-methyloct-3-enamide]",γ-H2AX (oxidation-induced DNA double-strand breaks),[5],also effective
same,level of p16,[6],much lower
same,toxicity,[7],no signs of toxicity were observed
same,hematopoietic cell radiation mitigation,[8],effective hematopoietic cell radiation mitigator
same,cellular proliferation relative to untreated control cells,[9]; Ercc1−/− or wild-type MEF,enhanced
same,toxicity,[9]; up to 10 μM,no signs of toxicity were observed
same,mitigation of irradiation damage,[10],effective mitigator
same,change in the Do,[10]; before or after irradiation,no significant change
same,survival of mice,"[11]; 9.5 Gy total body irradiation, 10 mg per kilogram intraperitoneal 24 hours prior",increases survival
same,survival of mice,"[11]; 9.75 Gy total body irradiation, 10 mg per kilogram intraperitoneal",significant increase in survival; also recorded: increases survival
CC(C)C[C@@H](/C=C/[C@H](Cc1ccccc1)C(=O)N1CCC[C@H]1C(=O)N[C@H](C(=O)N[C@@H](CCCNC(=O)OCc1ccccc1)C(=O)NC1CC(C)(C)N([O])C(C)(C)C1)C(C)C)NC(=O)OC(C)(C)C [5a],intracellular superoxide generation,MECs [1],completely inhibited
same,DNA fragmentation,MECs [2],prevented DNA fragmentation
same,caspase-3 activation,MECs [2],prevented caspase-3 activation
same,number of annexin V-positive cells (PS externalization),MECs [2],reduced the number of annexin V•positive cells
"C/C(=C\[C@H](Cc1ccccc1)C(=O)N1CCC[C@H]1C(=O)N[C@H](C(=O)NC(CCCNC(=O)OCc1ccccc1)C(=O)NC1=NCCC(C)S1)C(C)C)[C@H](CC(C)C)NC(=O)OC(C)(C)C (stereo partly drawn) [XJB-5-241, Boc-Leu-ψ[(E)-C(CH3)═CH]-^DPhe-Pro-Val-Orn(Cbz)-AMT]",fmole/10 μM mitochondrial protein,mitochondrial membrane,103.3 fmole/10 μM mitochondrial protein
"CC1(C)CC(N)CC(C)(C)N1[O] [4-amino-TEMPO, reference compound]",EPR signals of nitroxide radicals; integration into cells and mitochondria,[12],did not effectively permeate cells or the mitochondria
same,"permeation of the mitochondrial membrane (MS, Na+ adducts)",[3],only permeate the mitochondrial membrane with the assistance of the attached GS-derived targeting sequence
same,peroxynitrite formation,[4],comparable amount of peroxynitrite
same,intracellular superoxide generation,MECs [1],had no effect
same,protection against ActD-induced apoptosis,MECs [2]; 10 μM / low concentrations,afforded no protection
"CC(C)C[C@@H](/C=C/[C@H](Cc1ccccc1)C(=O)N1CCC[C@H]1C(=O)N[C@H](C(=O)N[C@@H](CCCNC(=O)OCc1ccccc1)C(=O)NC1=NCCC(C)S1)C(C)C)NC(=O)OC(C)(C)C (stereo partly drawn) [XJB-5-133, Boc-leu-ψ[(E)-CH═CH]-^DPhe-Pro-Val-Orn(Cbz)-AMT]",fmole/10 μM mitochondrial protein,mitochondrial membrane,89.8 fmole/10 μM mitochondrial protein
"CC(C)C[C@@H](/C=C/[C@H](Cc1ccccc1)C(=O)NC1=NCCC(C)S1)NC(=O)OC(C)(C)C (stereo partly drawn) [XJB-5-234, Boc-Leu-[ψ(E)-CH═CH]-^DPhe-AMT]",fmole/10 μM mitochondrial protein,mitochondrial membrane,1.45 fmole/10 μM mitochondrial protein
